Assay results: article PMC9603901, “Therapeutic Potential of Antimicrobial Peptide PN5 against Multidrug-Resistant E. coli and Anti-Inflammatory Activity in a Septic Mouse Model” (Microbiology Spectrum, 2022)
≈ marks a conversion by molar mass, not a printed value. Where two headings read alike, the source gives them in different places. Where no end group is shown, it is not given here.

Assays:
[1] = system: ASEC 2 biofilm; conditions: for biofilm formation visualized with SYTO 9: antibiotics at 32 μM, 24 h, SYTO 9 staining (Fig. 3F); for MBIC50: crystal violet A595, 24 h, three independent experiments
Procedure: (§1) Crystal violet staining was performed to determine the degree of biofilm formation by the E. coli 25922, S. aureus 25923, and ASEC strains. E. coli 25922 and S. aureus 25923 were cultured overnight in LB and TSB media with aeration at 180 rpm, respectively. Bacterial suspensions with 0.2% glucose (5 × 10^5 CFU mL^−1) were added to a 96-well plate (30096, surface treatment; SPL Life Sciences) and incubated for 24 h at 37°C. The supernatant was removed and fixed with 100% methanol. Next, 100 μL of crystal violet was added to the plate and incubated to dye the cells for 1 h, followed by rinsing the cells three times with distilled water (dH2O). After the crystal violet was dissolved with 95% ethanol, the mass of biofilm formation at 595 nm was measured using a Versa Max microplate reader (Molecular Devices). The inhibitory effect of PN5 against biofilm formed by E. coli 25922, S. aureus 25923, and three MDR E. coli strains (ASEC 2, 16, and 18) were determined. These cells were cultured overnight in LB and TSB media. Bacterial suspensions (5 × 10^5 CFU mL^−1) containing 0.2% glucose were added to 96-well plates and PN5 was serially diluted to a final concentration of 32 μM. The minimal biofilm inhibitory concentration (MBIC) was determined in three independent experiments. The percentage of biofilm formation was measured using the equation (A595 of treated biofilm/A595 of untreated biofilm) × 100. Similarly, the MDR ASEC 1 to 19 strains were cultured overnight in LB medium and seeded into 96-well plates with medium containing 0.2% glucose at 5 × 10^5 CFU mL^−1 of the bacterial suspension. Biofilm staining was performed as described above. SYTO 9 (6 μM) fluorescence in LIVE/DEAD BacLight was used to visualize the degree of biofilm formation. […] After 24 h, the culture supernatant of the peptide and bacteria was discarded, and the pellet was fixed with 100% methanol. A fluorescence mixture of SYTO 9 and propidium iodide was then added to each well, and the fluorescence was evaluated with an EVOS FL color imaging system (Thermo Fisher Scientific) with a 4× objective ([22]).

[2] = system: ASEC 16 biofilm; conditions: crystal violet A595, 24 h, three independent experiments
Procedure: as §1

[3] = system: ASEC 18 biofilm; conditions: crystal violet A595, 24 h, three independent experiments
Procedure: as §1

[4] = system: MDR E. coli ASEC 11; set-up: method as in Asan hospital; key to susceptibility category: S: susceptible; R: resistant; I: intermediate; conditions: ref Asan hospital, cited from earlier work; for MIC: ASEC 11 (ESBL), resistance information of clinical isolate; for susceptibility category: ASEC 11
[5] = system: MDR E. coli ASEC 1; set-up: method as in Asan hospital; key to susceptibility category: S: susceptible; R: resistant; I: intermediate; conditions: ref Asan hospital, cited from earlier work; for MIC: ASEC 1 (carbapenemase NDM-1), resistance information of clinical isolate; for susceptibility category: ASEC 1
[6] = system: MDR E. coli ASEC 4; set-up: method as in Asan hospital; key to susceptibility category: S: susceptible; R: resistant; I: intermediate; conditions: ref Asan hospital, cited from earlier work; for MIC: ASEC 4 (ESBL), resistance information of clinical isolate; for susceptibility category: ASEC 4
[7] = system: MDR E. coli ASEC 3; set-up: method as in Asan hospital; key to susceptibility category: S: susceptible; R: resistant; I: intermediate; conditions: ref Asan hospital, cited from earlier work; for MIC: ASEC 3 (NDM-5), resistance information of clinical isolate; for susceptibility category: ASEC 3
[8] = system: MDR E. coli ASEC 19; set-up: method as in Asan hospital; key to susceptibility category: S: susceptible; R: resistant; I: intermediate; conditions: ref Asan hospital, cited from earlier work; for MIC: ASEC 19 (AmpC), resistance information of clinical isolate; for susceptibility category: ASEC 19
[9] = system: MDR E. coli ASEC 8; set-up: method as in Asan hospital; key to susceptibility category: S: susceptible; R: resistant; I: intermediate; conditions: ref Asan hospital, cited from earlier work; for MIC: ASEC 8 (ESBL), resistance information of clinical isolate; for susceptibility category: ASEC 8
[10] = system: MDR E. coli ASEC 9; set-up: method as in Asan hospital; key to susceptibility category: S: susceptible; R: resistant; I: intermediate; conditions: ref Asan hospital, cited from earlier work; for MIC: ASEC 9 (ESBL), resistance information of clinical isolate; for susceptibility category: ASEC 9
[11] = system: MDR E. coli ASEC 16; set-up: method as in Asan hospital; key to susceptibility category: S: susceptible; R: resistant; I: intermediate; conditions: ref Asan hospital, cited from earlier work; for MIC: ASEC 16 (AmpC), resistance information of clinical isolate; for susceptibility category: ASEC 16
[12] = system: MDR E. coli ASEC 6; set-up: method as in Asan hospital; key to susceptibility category: S: susceptible; R: resistant; I: intermediate; conditions: ref Asan hospital, cited from earlier work; for MIC: ASEC 6 (ESBL), resistance information of clinical isolate; for susceptibility category: ASEC 6
[13] = system: E. coli – Meropenem (Passage 25); test: microbe, parasite or virus in culture; format: cell-based, Escherichia coli
Procedure: (§2) E. coli ATCC 25922 cells were incubated overnight at 37°C in LB medium with shaking (180 rpm) and then adjusted to 2 × 10^5 CFU mL^−1; 0.5× MIC of PN5 and antibiotics were added to the medium and cultured overnight at 37°C with aeration (180 rpm). The MIC was determined by measuring the OD600 using a Versa Max microplate reader. On the next day, to measure the MIC with the bacteria grown after treatment with 0.5× MIC, the bacteria and antibiotic were adjusted to the same concentration, and the bacteria were cultured by adding 0.5× MIC in the same manner. The initial culture was continuously cultured for 25 passages in this manner.

[14] = system: E. coli – Ceftazidime (Passage 25); test: microbe, parasite or virus in culture; format: cell-based, Escherichia coli
Procedure: as §2

[15] = system: E. coli ATCC 25922; test: microbe, parasite or virus in culture; format: cell-based, Escherichia coli; conditions: for MIC: Escherichia coli
Procedure: as §2

[16] = Escherichia coli, read-out: MIC, value in parentheses
[17] = E. coli ATCC 25922 passaged with 0.5× MIC of the same agent
[18] = ATCC25922, read-out: MIC after 25 passages
[19] = ATCC25922, read-out: MIC at passage 1

Compound	biofilm formation visualized with SYTO 9 [1]	MBIC50 [1]	MBIC50 [2]	MBIC50 [3]	MIC [4]	susceptibility category [4]	MIC [5] [µg/mL]	susceptibility category [5]	MIC [6] [µg/mL]	susceptibility category [6]	MIC [7] [µg/mL]	susceptibility category [7]	MIC [8]	susceptibility category [8]	MIC [9]	susceptibility category [9]	MIC [10]	susceptibility category [10]	MIC [11]	susceptibility category [11]	also measured
CO/N=C(\C(=O)N[C@@H]1C(=O)N2C(C(=O)O)=C(COC(C)=O)CS[C@H]12)c1csc(N)n1 [Cefotaxime]	did not inhibit biofilm formation	>128 (>58.3) μM	128 (58.3) μM	>128 (>58.3) μM	> 32 µg/mL	R	> 32	R	> 32	R	> 32	R	> 32 µg/mL	R	> 32 µg/mL	R	> 32 µg/mL	R	> 32 µg/mL	R	MIC [12]: > 32 µg/mL; susceptibility category [12]: R
CC(C)(O/N=C(\C(=O)N[C@@H]1C(=O)N2C(C(=O)[O-])=C(C[n+]3ccccc3)CS[C@H]12)c1csc(N)n1)C(=O)O [Ceftazidime]	did not inhibit biofilm formation	>128 (>69.95) μM	>128 (>69.95) μM	>128 (>69.95) μM	> 16 µg/mL	R	> 16	R	> 16	R	> 16	R	> 16 µg/mL	R	> 16 µg/mL	R	> 16 µg/mL	R	> 16 µg/mL	R	MIC ([13]; Escherichia coli, ATCC25922): 0.25 µM (≈ 0.137 µg/mL); MIC [13, 16]: 0.25 µM (≈ 0.137 µg/mL); MIC ([14]; Escherichia coli, ATCC25922): 128 µM (≈ 70 µg/mL); MIC [14, 16]: 0.25 µM (≈ 0.137 µg/mL); fold increase of MIC after 25 passages [15, 17]: 512 fold; MIC [15, 18]: 128 µM (≈ 70 µg/mL); MIC [15, 19]: 0.25 µM (≈ 0.137 µg/mL); MIC [12]: > 16 µg/mL; susceptibility category [12]: R
C[C@@H](O)[C@H]1C(=O)N2C(C(=O)O)=C(S[C@@H]3CN[C@H](C(=O)N(C)C)C3)[C@H](C)[C@H]12 [Meropenem]	did not inhibit biofilm formation	64 (24.54) μM	<2 (<0.77) μM	<2 (<0.77) μM	<= 1 μg mL-1	S	8 (≈ 20.9 µM)	R	> 8	R	> 8	R	<= 1 μg mL-1	S	<= 1 μg mL-1	S	<= 1 μg mL-1	S	<= 1 μg mL-1	S	MIC ([13]; Escherichia coli, ATCC25922): 0.25 µM (≈ 0.0959 µg/mL); MIC [13, 16]: 0.0312 µM (≈ 0.012 µg/mL); MIC ([14]; Escherichia coli, ATCC25922): 0.0312 µM (≈ 0.012 µg/mL); MIC [14, 16]: 0.0312 µM (≈ 0.012 µg/mL); fold increase of MIC after 25 passages [15, 17]: 8 fold; MIC [15, 18]: 0.25 µM (≈ 0.0959 µg/mL); MIC [15, 19]: 0.0312 µM (≈ 0.012 µg/mL); MIC [12]: > 8 µg/mL; susceptibility category [12]: R
FKFLARTGKFL-NH2 [PN5]		8 (10.61) μM	16 (21.22) μM	16 (21.22) μM																	MIC ([13]; E. coli ATCC 25922 with resistance induced by meropenem, passage 25, three independent experiments): 16 µM; MIC ([14]; E. coli ATCC 25922 with resistance induced by ceftazidime, passage 25, three independent experiments): 16 µM; MIC after 25 passages [15, 17]: 16 µM
